Results on 51 compounds are retold here after paper PMC6627609, “Targeting Quorum Sensing: High-Throughput Screening to Identify Novel LsrK Inhibitors” (International Journal of Molecular Sciences, 2019).

Where a name gives a salt, the structure may show the parent alone.

In the first assay the target is LsrK (Salmonella typhimurium, UniProt Q8ZKQ6). The assay can be described thus: biochemical. It counts as biochemical, S. typhimurium.
LsrK, sequence (Q8ZKQ6 whole entry): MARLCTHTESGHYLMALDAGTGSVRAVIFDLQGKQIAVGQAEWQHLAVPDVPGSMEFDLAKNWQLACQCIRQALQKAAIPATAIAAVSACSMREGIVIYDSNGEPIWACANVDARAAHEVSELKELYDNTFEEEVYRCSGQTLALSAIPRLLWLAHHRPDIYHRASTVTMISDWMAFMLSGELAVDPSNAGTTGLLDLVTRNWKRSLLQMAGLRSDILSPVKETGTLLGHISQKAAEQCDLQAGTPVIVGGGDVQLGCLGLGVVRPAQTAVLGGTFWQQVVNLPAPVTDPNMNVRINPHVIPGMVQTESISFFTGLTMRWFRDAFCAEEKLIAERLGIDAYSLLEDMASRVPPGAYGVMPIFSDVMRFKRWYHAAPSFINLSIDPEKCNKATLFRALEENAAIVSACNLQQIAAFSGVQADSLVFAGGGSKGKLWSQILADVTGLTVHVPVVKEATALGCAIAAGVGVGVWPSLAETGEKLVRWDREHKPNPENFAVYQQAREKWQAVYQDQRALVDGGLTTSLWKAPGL
Conditions: not given
A word on the inhibition: it is the relative decrease from the control value, in per cent. Take `C=CC(C1=CC(=O)C(OC)=CC1=O)c1ccccc1` (stereo not shown) [4-METHOXYDALBERGIONE]: the inhibition at 50 µM stood at 52%.

For `c1ccc2[nH]c(-c3cscn3)nc2c1` [THIABENDAZOLE], the inhibition at 50 µM was 5%.

Regarding `CCN(CC)CCNc1ccc(CO)c2sc3ccccc3c(=O)c12` [HYCANTHONE], the inhibition at 50 µM is 1%.

Take `O=C(/C=C/c1ccc(O)c(O)c1)O[C@H](Cc1ccc(O)c(O)c1)C(=O)O` [ROSMARINIC ACID]: the inhibition at 50 µM was 2%.

For `Cc1ccnc(NS(=O)(=O)c2ccc(N)cc2)n1` [SULFAMERAZINE], the inhibition at 50 µM was 2%.

Regarding `COC1=CC(=O)C(O)=C/C1=C\C=C\c1ccccc1` [OBTUSAQUINONE], the inhibition at 50 µM stood at 130%.

For the compound `O=C(O)CCCCCCCCCCCC[C@@H]1C=CCC1` [CH[…]], the inhibition at 50 µM turned out to be 156%.

Take `O=C(O)CCCO` [SODIUM OXYBATE]: the inhibition at 50 µM came out at 1%.

Turning to `Cc1onc(-c2c(Cl)cccc2Cl)c1C(=O)N[C@@H]1C(=O)N2[C@@H]1SC(C)(C)[C@@H]2C(=O)O` [DICLOXACILLIN SODIUM], the inhibition at 50 µM worked out at 0%.

With `C=CC(N)CCC(=O)O` (stereo not shown) [VIGABATRIN], the inhibition at 50 µM is 1%.

As to `CC(=O)OCC(=O)[C@@]1(O)[C@H](C)C[C@H]2[C@@H]3CCC4=CC(=O)C=C[C@]4(C)[C@@]3(F)[C@@H](O)C[C@@]21C` [DEXAMETHASONE ACETATE], the inhibition at 50 µM came out at 0%.

`NC(=O)c1cccnc1` [NIACINAMIDE]: the inhibition at 50 µM amounted to 1%.

Regarding `C[C@@H]1C/C=C/C=C/C=C/C=C/[C@H](O[C@@H]2O[C@H](C)[C@@H](O)[C@H](N)[C@@H]2O)C[C@@H]2O[C@](O)(C[C@@H](O)C[C@H]3O[C@@H]3/C=C/C(=O)O1)C[C@H](O)[C@H]2C(=O)O` [NATAMYCIN], the inhibition at 50 µM is 12%.

Regarding `CCN1C[C@]2(COC)[C@H](O)C[C@H](OC)[C@@]34[C@@H]5C[C@@]6(O)[C@H](OC(=O)c7ccccc7)[C@@H]5[C@@](OC(C)=O)([C@@H]([C@H](OC)[C@H]23)[C@@H]14)[C@@H](O)[C@@H]6OC` [ACONITINE], the inhibition at 50 µM is 1%.

Consider `O=c1[nH]cc(F)c(=O)[nH]1` [FLUOROURACIL], for which the inhibition at 50 µM is 0%.

Turning to `COc1cc(C(C)=O)cc(OC)c1O` [ACETOSYRINGONE], the inhibition at 50 µM stood at 8%.

On to `CCCCCCc1ccc(O)cc1O` [HEXYLRESORCINOL], for which the inhibition at 50 µM is 0%.

As for `c1ccc(CN(CC2=NCCN2)c2ccccc2)cc1` [ANTAZOLINE PHOSPHATE], the inhibition at 50 µM came out at 1%.

On to `CCCCC(CC)CCC(CC(C)C)OS(=O)(=O)O` (stereo not shown) [SODIUM TETRADECYL SULFATE], for which the inhibition at 50 µM turned out to be 98%.

Regarding `NCCc1cc(O)c(O)cc1O` [OXIDOPAMINE HYDROCHLORIDE], the inhibition at 50 µM turned out to be 117%.

For `COc1cc(NS(C)(=O)=O)ccc1Nc1c2ccccc2nc2ccccc12` [AMSACRINE], the inhibition at 50 µM amounted to 1%.

On to `CCOc1ccc2nc3cc(N)ccc3c(N)c2c1` [ETHACRIDINE LACTATE], for which the inhibition at 50 µM stood at 1%.

Consider `C[C@@H]1CC[C@@]2(NC1)O[C@H]1C[C@H]3[C@@H]4CC=C5C[C@@H](O)CC[C@]5(C)[C@H]4CC[C@]3(C)[C@H]1[C@@H]2C` [SOLASODINE], for which the inhibition at 50 µM is 1%.

On to `c1ccc2c(c1)CN1CCCC1=N2` [DESOXYPEGANINE HYDROCHLORIDE], for which the inhibition at 50 µM was 0%.

With `CN1CCCN=C1/C=C/c1cccs1` [PYRANTEL PAMOATE], the inhibition at 50 µM stood at 101%.

For the compound `COC(=O)/C=C/C(C)=C\C=C\C(C)=C\C=C\C=C(C)\C=C\C=C(C)\C=C\C(=O)O` [BIXIN], the inhibition at 50 µM is 79%.

In the case of `CCC[C@@H]1C[C@@H](C(=O)N[C@@H]([C@H]2O[C@H](SC)[C@H](O)[C@@H](O)[C@H]2O)[C@H](C)Cl)N(C)C1` [CLINDAMYCIN HYDROCHLORIDE], the inhibition at 50 µM worked out at 0%.

As for `C#C[C@]1(O)CC[C@H]2[C@@H]3CCC4=CC(=O)CC[C@@H]4[C@H]3CC[C@@]21C` [NORETHINDRONE], the inhibition at 50 µM is 0%.

`N[C@@H](Cc1ccc(O)c(O)c1)C(=O)O` [LEVODOPA]: the inhibition at 50 µM worked out at 77%.

Usually IC50 stands for the concentration that inhibits the measured activity by half. Low readings indicate higher potency, high ones lower potency. Consider `COc1cc(C)c2c(c1C=O)Oc1c(c(C)c(O)c3c1C(O)OC3=O)OC2=O` (stereo not shown) [STICTIC ACID], for which the IC50 was determined as 3 µM and the inhibition at 50 µM was determined as 119%.

Take `C[C@]12CCC(=O)C=C1C=C[C@@H]1[C@@H]2CC[C@@]2(C)[C@H]1CC[C@@]21CCC(=O)O1` [CANRENONE]: the inhibition at 50 µM was determined as 1%.

Consider `Nc1ccccc1S(N)(=O)=O` [2-AMINOBENZENESULFONAMIDE], for which the inhibition at 50 µM was determined as 1%.

For the compound `CNc1ccccc1C(=O)O`, the inhibition at 50 µM is 1%.

In the case of `Cc1c(Cl)cccc1Nc1ccccc1C(=O)O` [TOLFENAMIC ACID], the inhibition at 50 µM is 97%.

In the case of `CC(C)[N+]1(C)[C@@H]2CC[C@H]1C[C@@H](OC(=O)C(CO)c1ccccc1)C2` (stereo partly shown) [IPRATROPIUM BROMIDE], the inhibition at 50 µM is 0%.

On to `OC[C@@H](O)[C@H]1O[C@@H]2O[C@H](C(Cl)(Cl)Cl)O[C@@H]2[C@H]1O` [CHLORALOSE], for which the inhibition at 50 µM was 1%.

With `COC(=O)c1c(C)cc(O)cc1O` [METHYL ORSELLINATE], the inhibition at 50 µM was 0%.

With `COc1cc2c(cc1OC)C(=O)C(CC1CCN(Cc3ccccc3)CC1)C2` (stereo not shown) [DONEPEZIL HYDROCHLORIDE], the inhibition at 50 µM is 2%.

The assay is the same for the next values; noted with them: 50 µM.
As to `O=C(O[C@@H]1Cc2c(O)cc(O)cc2O[C@@H]1c1cc(O)c(O)c(O)c1)c1cc(O)c(O)c(O)c1` [EPIGALLOCATECHIN-3-MONOGALLATE], the “Inhibition (%)” value was 87.

For the compound `O.O=C(O)[C@@H]1[C@H]2C[C@H]3c4[nH]c5ccccc5c4CCN3C[C@@H]2CC[C@@H]1O` [YOHIMBIC ACID HYDRATE], the “Inhibition (%)” value came to 1.

Regarding `COc1cc2c(cc1OC)[C@@H]1C(=O)c3c(O)cc4c(c3O[C@@H]1CO2)C=CC(C)(C)O4` [alpha-TOXICAROL], the “Inhibition (%)” value came to 10.

`CCCCS(=N)(=O)CCC(N)C(=O)O` [L-BUTHIONINE SULFOXIMINE]: the “Inhibition (%)” value was determined as 20.

With `O=c1cccc2ccc(O)c(O)c2c1O` [PYROGALLIN], the “Inhibition (%)” value was determined as 101.

Regarding `C[C@]12CCC3c4ccc(OS(=O)(=O)[O-])cc4CCC3C1CC[C@H]2O.[Na+]` (stereo partly shown) [ESTRADIOL-3-SULFATE. SODIUM SALT], the “Inhibition (%)” value is recorded as 0.

For the compound `COc1cc2c(cc1OC)-c1c(oc3cc(O)cc(O)c3c1=O)CO2` [APOTOXICAROL], the “Inhibition (%)” value came to 1.

For `Cc1c(N(C)CS(=O)(=O)[O-])c(=O)n(-c2ccccc2)n1C.[Na+]` [DIPYRONE], the “Inhibition (%)” value is given as 2.

With `CC(=O)Oc1cccc2c1C(=O)c1c(OC(C)=O)cc(C(=O)O)cc1C2=O` [DIACERIN], the “Inhibition (%)” value worked out at 0.

Regarding `O=c1c(O)c(-c2ccc(O)c(O)c2)oc2c(O[C@@H]3O[C@H](CO)[C@@H](O)[C@H](O)[C@H]3O)c(O)cc(O)c12` [GOSSYPIN], the “Inhibition (%)” value came out at 57.

With `CCn1cc(C(=O)O)c(=O)c2cc(F)c(N3CCN(C)CC3)cc21.CS(=O)(=O)O` [PEFLOXACINE MESYLATE], the “Inhibition (%)” value worked out at 2.

Consider `c1ccc2c(Cc3c[nH]c4ccccc34)c[nH]c2c1` [3.3'-DIINDOLYLMETHANE], for which the “Inhibition (%)” value is 0.

For the compound `C=CC(C1=CC(=O)C(OC)=CC1=O)c1ccc(OC)cc1` (stereo not shown) [4.4'-DIMETHOXYDALBERGIONE], the “Inhibition (%)” value is reported as 98.
